From patent US11208412B2 (DAEGU-GYEONGBUK MEDICAL INNOVATION FOUNDATION, priority 2017, dated 2021)

Columns and labels:
Test in all cases: Kinase selectivity, DiscoverX scanMAX Kinase assay panel (% control)
Type in all cases: binding
[1] = target: T1, kinases of the scanMAX Kinase assay panel (Homo sapiens, UniProt Q9UM73, L1196M); details: ALK(L1196M); 1 uM
T1 construct: purchased DiscoverX Co. (contract measurement) scanMAX Kinase assay panel
How it was run: (§1)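 Compounds were tested at 1 uM (in DMSO) against each panel kinase. % control was calculated as (compound − positive control)/(negative control − positive control)×100, where the positive control gives 0% and DMSO gives 100%. Activity toward a kinase was called at % control <35%.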

[2] = target: T2, kinases of the scanMAX Kinase assay panel (Homo sapiens, UniProt Q15303); details: ERBB4; 1 uM
T2 construct: purchased DiscoverX Co. (contract measurement) scanMAX Kinase assay panel
How it was run: as §1

[3] = target: T3, kinases of the scanMAX Kinase assay panel (Homo sapiens, UniProt Q13043); details: MST1; 1 uM
T3 construct: purchased DiscoverX Co. (contract measurement) scanMAX Kinase assay panel
T3 sequence (Q13043 1-487): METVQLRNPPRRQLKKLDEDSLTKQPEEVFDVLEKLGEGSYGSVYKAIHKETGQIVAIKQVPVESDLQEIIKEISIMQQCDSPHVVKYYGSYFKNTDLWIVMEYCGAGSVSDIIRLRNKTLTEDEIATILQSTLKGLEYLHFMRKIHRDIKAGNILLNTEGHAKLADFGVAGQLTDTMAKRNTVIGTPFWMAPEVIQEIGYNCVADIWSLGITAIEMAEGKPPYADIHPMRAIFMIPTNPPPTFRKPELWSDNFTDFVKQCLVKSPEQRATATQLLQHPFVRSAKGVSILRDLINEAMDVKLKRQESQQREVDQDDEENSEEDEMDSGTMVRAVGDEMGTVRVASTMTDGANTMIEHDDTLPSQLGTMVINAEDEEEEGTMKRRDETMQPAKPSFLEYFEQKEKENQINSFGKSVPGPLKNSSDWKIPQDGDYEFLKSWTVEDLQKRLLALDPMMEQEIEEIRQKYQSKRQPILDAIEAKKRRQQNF
How it was run: as §1

[4] = target: T4, kinases of the scanMAX Kinase assay panel (Homo sapiens, UniProt Q8TD19); details: NEK9; 1 uM
T4 construct: purchased DiscoverX Co. (contract measurement) scanMAX Kinase assay panel
T4 sequence (Q8TD19 1-979): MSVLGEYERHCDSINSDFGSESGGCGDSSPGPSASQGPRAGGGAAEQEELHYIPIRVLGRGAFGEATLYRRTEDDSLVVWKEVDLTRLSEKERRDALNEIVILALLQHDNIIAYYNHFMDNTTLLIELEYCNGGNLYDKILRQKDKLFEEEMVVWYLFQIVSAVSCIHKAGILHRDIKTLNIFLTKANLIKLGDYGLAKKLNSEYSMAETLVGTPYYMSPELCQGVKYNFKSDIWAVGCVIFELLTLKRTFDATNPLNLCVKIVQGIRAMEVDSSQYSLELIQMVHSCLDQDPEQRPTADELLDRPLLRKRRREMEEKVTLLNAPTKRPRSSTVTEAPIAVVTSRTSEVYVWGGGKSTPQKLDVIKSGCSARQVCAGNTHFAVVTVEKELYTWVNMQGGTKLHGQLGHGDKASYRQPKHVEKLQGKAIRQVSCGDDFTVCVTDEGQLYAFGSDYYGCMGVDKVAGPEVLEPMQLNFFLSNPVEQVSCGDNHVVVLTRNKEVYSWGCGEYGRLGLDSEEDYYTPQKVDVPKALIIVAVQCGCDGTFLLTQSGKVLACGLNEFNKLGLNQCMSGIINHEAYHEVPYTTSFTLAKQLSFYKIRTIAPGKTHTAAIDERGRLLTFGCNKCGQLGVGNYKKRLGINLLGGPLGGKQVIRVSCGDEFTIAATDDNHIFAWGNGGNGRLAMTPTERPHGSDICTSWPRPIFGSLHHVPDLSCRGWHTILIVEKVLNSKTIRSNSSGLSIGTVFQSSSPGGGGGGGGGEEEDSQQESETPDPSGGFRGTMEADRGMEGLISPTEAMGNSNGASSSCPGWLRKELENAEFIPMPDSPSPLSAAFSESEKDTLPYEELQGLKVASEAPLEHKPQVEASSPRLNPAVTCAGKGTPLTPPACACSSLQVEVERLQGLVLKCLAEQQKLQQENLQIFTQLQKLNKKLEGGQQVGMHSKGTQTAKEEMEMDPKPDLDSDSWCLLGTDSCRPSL
How it was run: as §1

[5] = target: T5, kinases of the scanMAX Kinase assay panel (Homo sapiens, UniProt P78356); details: PIP5K2B; 1 uM
T5 construct: purchased DiscoverX Co. (contract measurement) scanMAX Kinase assay panel
T5 sequence (P78356 1-416): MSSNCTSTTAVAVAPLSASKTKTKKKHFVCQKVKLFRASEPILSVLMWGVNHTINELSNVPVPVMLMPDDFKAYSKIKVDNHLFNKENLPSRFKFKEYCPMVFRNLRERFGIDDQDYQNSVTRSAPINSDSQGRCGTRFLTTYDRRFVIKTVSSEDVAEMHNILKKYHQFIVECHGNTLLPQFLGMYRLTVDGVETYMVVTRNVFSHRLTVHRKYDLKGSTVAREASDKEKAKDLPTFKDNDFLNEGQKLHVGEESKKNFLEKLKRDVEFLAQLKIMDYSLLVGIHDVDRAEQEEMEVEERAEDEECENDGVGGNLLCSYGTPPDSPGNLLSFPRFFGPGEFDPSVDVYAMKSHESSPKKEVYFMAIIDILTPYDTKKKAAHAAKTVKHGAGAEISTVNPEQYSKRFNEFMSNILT
How it was run: as §1

T1 sequence (Q9UM73 19-1620 L1196M): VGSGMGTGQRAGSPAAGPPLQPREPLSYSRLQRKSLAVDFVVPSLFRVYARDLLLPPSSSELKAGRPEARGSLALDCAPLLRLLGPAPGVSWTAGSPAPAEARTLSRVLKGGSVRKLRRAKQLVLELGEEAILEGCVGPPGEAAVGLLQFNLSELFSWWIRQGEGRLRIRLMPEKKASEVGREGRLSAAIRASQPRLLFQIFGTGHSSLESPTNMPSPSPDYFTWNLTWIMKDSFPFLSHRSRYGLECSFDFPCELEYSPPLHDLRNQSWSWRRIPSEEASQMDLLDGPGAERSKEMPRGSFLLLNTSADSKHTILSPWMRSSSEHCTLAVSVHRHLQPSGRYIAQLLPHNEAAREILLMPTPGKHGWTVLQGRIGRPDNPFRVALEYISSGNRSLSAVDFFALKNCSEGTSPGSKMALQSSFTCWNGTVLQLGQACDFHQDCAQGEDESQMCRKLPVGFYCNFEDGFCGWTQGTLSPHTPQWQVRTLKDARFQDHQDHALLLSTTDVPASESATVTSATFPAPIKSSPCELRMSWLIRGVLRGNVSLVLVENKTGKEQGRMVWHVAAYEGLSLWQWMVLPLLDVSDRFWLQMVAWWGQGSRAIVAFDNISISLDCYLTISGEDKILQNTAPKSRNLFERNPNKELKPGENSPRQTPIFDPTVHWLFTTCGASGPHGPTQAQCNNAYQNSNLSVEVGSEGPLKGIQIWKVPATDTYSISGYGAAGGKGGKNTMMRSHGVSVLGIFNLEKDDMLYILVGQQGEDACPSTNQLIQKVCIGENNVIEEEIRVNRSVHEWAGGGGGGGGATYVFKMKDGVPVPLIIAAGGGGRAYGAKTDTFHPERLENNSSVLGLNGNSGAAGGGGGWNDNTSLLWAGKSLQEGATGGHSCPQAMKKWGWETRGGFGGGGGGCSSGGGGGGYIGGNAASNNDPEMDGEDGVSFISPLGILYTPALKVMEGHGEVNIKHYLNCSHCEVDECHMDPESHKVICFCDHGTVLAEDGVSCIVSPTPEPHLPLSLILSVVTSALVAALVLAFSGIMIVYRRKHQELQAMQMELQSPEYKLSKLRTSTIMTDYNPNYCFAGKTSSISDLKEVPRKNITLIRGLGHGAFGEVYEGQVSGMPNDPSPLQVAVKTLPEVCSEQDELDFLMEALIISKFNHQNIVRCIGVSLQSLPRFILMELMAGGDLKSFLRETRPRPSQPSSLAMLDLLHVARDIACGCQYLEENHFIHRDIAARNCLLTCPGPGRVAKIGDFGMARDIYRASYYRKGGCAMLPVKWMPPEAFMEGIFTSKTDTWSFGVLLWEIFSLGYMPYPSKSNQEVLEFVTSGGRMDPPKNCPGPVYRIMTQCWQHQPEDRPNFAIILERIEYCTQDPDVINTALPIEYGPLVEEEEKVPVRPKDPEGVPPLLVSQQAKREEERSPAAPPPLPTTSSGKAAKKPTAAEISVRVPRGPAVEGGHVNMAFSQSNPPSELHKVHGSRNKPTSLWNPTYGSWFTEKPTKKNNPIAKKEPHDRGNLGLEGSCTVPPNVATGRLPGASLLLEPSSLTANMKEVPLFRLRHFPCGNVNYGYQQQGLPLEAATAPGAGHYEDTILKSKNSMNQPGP
T2 sequence (Q15303 26-1308): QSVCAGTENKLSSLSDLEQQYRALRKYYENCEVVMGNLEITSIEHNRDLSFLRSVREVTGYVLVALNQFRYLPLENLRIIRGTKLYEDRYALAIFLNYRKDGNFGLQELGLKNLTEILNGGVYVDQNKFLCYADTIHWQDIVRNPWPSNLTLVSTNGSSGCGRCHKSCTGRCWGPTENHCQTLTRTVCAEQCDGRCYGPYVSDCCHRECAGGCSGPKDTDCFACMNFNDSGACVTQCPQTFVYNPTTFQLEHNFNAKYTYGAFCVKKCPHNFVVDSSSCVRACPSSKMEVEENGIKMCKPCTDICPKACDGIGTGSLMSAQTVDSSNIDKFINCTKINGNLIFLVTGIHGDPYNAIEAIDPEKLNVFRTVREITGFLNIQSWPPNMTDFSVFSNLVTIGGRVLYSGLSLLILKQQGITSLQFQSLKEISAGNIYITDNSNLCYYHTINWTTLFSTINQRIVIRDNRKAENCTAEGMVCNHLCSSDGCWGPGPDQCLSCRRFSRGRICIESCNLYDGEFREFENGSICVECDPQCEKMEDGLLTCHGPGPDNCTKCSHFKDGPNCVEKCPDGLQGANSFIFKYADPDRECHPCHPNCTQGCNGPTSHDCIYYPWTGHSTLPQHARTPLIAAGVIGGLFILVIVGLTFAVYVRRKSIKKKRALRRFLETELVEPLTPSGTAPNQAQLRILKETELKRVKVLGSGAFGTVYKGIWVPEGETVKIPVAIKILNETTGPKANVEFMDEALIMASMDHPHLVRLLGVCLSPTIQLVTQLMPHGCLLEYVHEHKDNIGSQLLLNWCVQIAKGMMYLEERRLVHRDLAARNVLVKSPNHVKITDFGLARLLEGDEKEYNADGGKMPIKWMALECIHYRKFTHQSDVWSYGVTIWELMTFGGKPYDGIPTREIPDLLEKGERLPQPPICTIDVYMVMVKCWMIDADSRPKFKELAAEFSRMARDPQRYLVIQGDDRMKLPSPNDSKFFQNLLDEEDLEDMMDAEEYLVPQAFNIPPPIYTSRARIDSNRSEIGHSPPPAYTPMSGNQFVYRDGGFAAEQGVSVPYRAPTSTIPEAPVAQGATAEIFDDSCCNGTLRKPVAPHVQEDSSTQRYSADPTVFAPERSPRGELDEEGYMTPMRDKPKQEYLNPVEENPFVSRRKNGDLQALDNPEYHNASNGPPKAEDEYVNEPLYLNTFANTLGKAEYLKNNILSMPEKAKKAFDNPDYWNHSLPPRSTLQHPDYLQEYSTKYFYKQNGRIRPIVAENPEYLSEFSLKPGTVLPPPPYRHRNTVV

SMILES	remaining binding at 1 µM [1] [%]	remaining binding at 1 µM [2] [%]	remaining binding at 1 µM [3] [%]	remaining binding at 1 µM [4] [%]	remaining binding at 1 µM [5] [%]
CNc1nc(Nc2ccc(C(=O)N3CCOCC3)cc2OC)nc2[nH]cc(C#N)c12 [Example 1, 2-((2-methoxy-4-(morpholine-4-carbonyl)phenyl)amino)-4-(methylamino)-7H-pyrrolo[2,3-d]pyrimidine-5-carbonitrile]	33	99	93	100	100
CC1(Nc2nc(Nc3cnn([C@H]4CCN(C5COC5)C[C@@H]4F)c3Cl)nc3[nH]cc(C#N)c23)CC1 [Example 52, 2-((5-chloro-1-((3S,4S)-3-fluoro-1-(oxetane-3-yl)piperidine-4-yl)-1H-pyrazole-4-yl)amino)((1-methylcyclopropyl)amino)-7H-pyrrolo[2,3-d]pyrimidine-5-carbonitrile]	9.9	45	17	73	0.45
CCNc1nc(Nc2ccc(C(=O)N3CCC(N4CCOCC4)CC3)cc2OC)nc2[nH]cc(C(F)(F)F)c12 [Example 104, (4-((4-(ethylamino)-5-(trifluoromethyl)-7H-pyrrolo[2,3-d]pyrimidine-2-yl)amino)-3-methoxyphenyl)(4-morpholinopiperidine-1-yl)methanone]	0.75	100	100	99	100
